# Results: US20240285555A1, “COMPOSITIONS FOR THE TREATMENT OF COPPER DEFICIENCY AND METHODS OF USE” (priority 2018, published 2024)
# Assays:
# [1] = system: mottled-brindled (mo-br) mouse; assay: Survival of Menkes (mo-br) mice after subcutaneous injections; format: in vivo
# Description: Kaplan-Meier Survival of mice after subcutaneous injections of ES-Cu(II) on postnatal days 7 and 10. Log-Rank statistical analysis was conducted to assess significance of survival among mo-br mice cohorts. Mo-br mice treated with 3.625 mg/kg/dose.
# FIG. 8 illustrates mean body weight gain of mice after subcutaneous injections on postnatal days 7 and 10. Cohorts and number of mice/cohort are designated as follows: WT vehicle (n=13), WT Cu(II)-ES (n=12), mo-br vehicle (n=9), mo-br Cu(II)-ES (n=27), mo-br Cu(II)-2His (n=6), and mo-br ES (n=6). Growth curves are reported as the mean of each cohort±SD measured weekly.
# To evaluate the potential of Cu(II)-ES in a mouse model of human copper deficiency disorder, the well-characterized mottled-brindled (mo-br) mouse model (C57BL/6-Atp7a^mo-br/J, Jackson Laboratory Stock #002566) that closely mimics the clinical and biochemical phenotypes of Menkes disease was chosen. Like in humans, these mice are characterized by mutation in ATP7a, which is an X-linked gene and therefore its mutation only affects males.
# [2] = system: coa6Δ cells; assay: Cellular and mitochondrial copper measurements by ICP-MS in yeast; format: cell-based, Saccharomyces cerevisiae; conditions: 20 nM ES
# Description: FIGS. 2A, 2B, 2C, 2D and 2E illustrate elesclomol supplementation rescues CcO assembly defects by restoring mitochondrial copper levels of yeast S. cerevisiae coa6Δ cells. FIGS. 2A-2C illustrate bioenergetic parameters of wild type (WT), coa6Δ, and coa6Δ cells supplemented with 20 nM ES were cultured in YP galactose medium until early stationary growth phase. […] Error bars represent mean±SD (n=3, two-tailed unpaired Student's t-test *p<0.05, **p<0.005).
# Cellular and Mitochondrial Copper Measurements. Cellular and mitochondrial copper levels were measured using the Perkin Elmer DRC II Inductively Coupled Plasma-Mass Spectrometer (ICP-MS). Intact yeast cells and isolated mitochondrial pellets were washed with 100 μM EDTA containing water, weighed, and digested with 40% nitric acid (TraceSELECT, Sigma) at 90° C. for 18 h. Samples were diluted in ultrapure metal-free water (TraceSELECT, Sigma) and analyzed by ICP-MS. Copper standard solutions were prepared by appropriate dilutions of commercially available mixed metal standards (BDH Aristar Plus). Copper concentrations in mammalian cells were also measured by ICP-MS.
# ES scavenges copper from the culture medium, enters the cell as an ES-copper complex, and selectively accumulates in mitochondria where it dissociates from copper. […]
# [3] = system: ccs1Δ cells; assay: Respiratory growth rescue of ccs1Δ yeast; format: cell-based, Saccharomyces cerevisiae; conditions: non-fermentable media, 37° C.
# Description: Yeast Strains and Culture Conditions. The authenticity of yeast strains was confirmed by PCR as well as by replica plating on dropout plates. Yeast cells were cultured in standard YP growth media including YPD (1% yeast extract, 2% peptone and 2% glucose), YPGal (2% galactose), YPGE (3% glycerol+1% ethanol), or synthetic media (SC glucose). For qualitative growth measurement, 10-fold serial dilutions of overnight cultures were spotted on YPD or YPGE plates and incubated at 30° C. and 37° C. for the indicated period. Growth in liquid media was measured spectrophotometrically at 600 nm.
# ES Rescues Many Different Yeast Mutants with Impaired Copper Metabolism. To test the specificity of ES mediated rescue, a number of yeast mutants of genes required for maintaining cellular and mitochondrial copper homeostasis were shortlisted. Genes were prioritized based on their evolutionary conservation, presence of pathogenic mutations in humans, and/or the existence of a related mouse phenotype (Table 3, shown below). […] Most of the yeast mutants were rescued with ES supplementation, albeit to different degrees, reflecting their distinct roles in cellular and mitochondrial copper homeostasis. […]
smiles,measurement,setting,value
"CN(NC(=O)CC(=O)NN(C)C(=S)c1ccccc1)C(=S)c1ccccc1 [ES, elesclomol]",mean survival time,"[1]; mouse, in vivo",17.0 ± 0.9 days
same,weekly time point by which all mice of the cohort had expired,"[1]; subcutaneous, postnatal days 7 and 10",≤ 2 week
same,mitochondrial copper levels,[2],almost complete rescue
same,total cellular copper levels,[2],moderately increased
same,rescue of the respiratory growth defect,[3],rescue
